In patent US20140364460A1, “USE OF FATOSTATIN FOR TREATING CANCER HAVING A p53 MUTATION” (THE TRUSTEES OF COLUMBIA UNIVERSITY IN THE CITY OF NEW YORK, priority 2012, published 2014):

Key:
MDA-231 cells = assay: Three-dimensional culture of MDA-231.shp53 cells; assay type: cell-based; conditions: 3D culture 8 days, fatostatin 2 or 20 μM added day 1
Experimental: FIG. 2. MDA-231.shp53 cells were grown in 3D cultures for 8 days and treated with (A) DMSO, (B) Fatostatin 2 μM or (C) Fatostatin 20 μM. Drugs were added on day 1. Representative DIC images are shown. Scale bar, 200 μm.
(§1) Three-dimensional culture was carried out as described in Debnath et al., 2003. Briefly, 8-well chamber slides were lined with 50 μl growth factor reduced Matrigel (BD Biosciences). Cells were then seeded at a density of 5,000 cells/well in Assay Medium (DMEM/F12+2% Horse Serum+10 μg/ml Insulin+0.5 μg/ml Hydrocortisone) containing 2% Matrigel. Cells were refed with Assay Medium containing 2% Matrigel every 4 days. For RNA/protein analysis from 3D cultures, 35 mm plates were lined with 500 μl Matrigel and cells were seeded at a density of 225,000 cells/plate in Assay Medium+2% Matrigel. Cells were harvested using Cell Recovery Solution (BD Biosciences) according to the manufacturer's instructions.
MDA-231.shp53 cells were grown in 3D cultures for 8 days and treated with DMSO and fatostatin (2 or 20 μM). Drugs were added on day 1. Representative DIC images are shown. FIG. 2. Scale bar, […].

[1] = tested on: mutant p53 binding to the HMG-CoA reductase gene promoter; assay: Quantitative ChIP of mutant p53 in fatostatin-treated MDA-468.shp53 cells; assay type: cell-based; conditions: fatostatin 20 μM, six independent experiments, p<0.01
Experimental: FIG. 1. MDA-468.shp53 cells were treated with fatostatin (20 μM) and subjected to ChIP analysis. Data are presented as mean+−SD of six independent experiments. **p<0.01
Chromatin Immunoprecipitation (ChIP) experiments were carried out as described in Beckerman et al., 2009. Briefly, MDA-468 cells were treated with 1% formaldehyde prior to lysis in RIPA Buffer and sonication to yield 500 bp fragments. Protein A/G Sepharose beads were conjugated to anti-p53 antibodies (1801/D0-1) which were subsequently used to immunoprecipitate p53 from 1 mg whole cell lysate. Quantitative ChIP was carried out on an ABI StepOne Plus using SYBR green dye. Genomic Locations of SRE-1 sites within the promoters of sterol biosynthesis genes were located using a literature search: HMGCS 1 (Inoue et al., 1998), HMGCR (Boone et al., 2009), MVK (Bishop et al., 1998), FDPS (Ishimoto et al., 2010), FDFT1 (Inoue et al., 1998), SQLE (Nagai et al., 2002) and CYP51A1 (Halder et al., 2002), respectively. ChIP primer sequences are provided in Table 2 of PCT/US 11/55488 and are incorporated by reference.
MDA-468.shp53 cells were treated with Fatostatin (20 μM) and subjected to ChIP analysis. FIG. 1. Cells in 3D culture were treated on Day 1 or Day 4 of the 3D protocol and refed every 4 days with fresh drug. Data are presented as mean+−SD of six independent experiments. **p<0.01.

SKBR3 cells = assay: Three-dimensional culture of SKBR3 cells; assay type: cell-based; conditions: 3D culture 8 days, fatostatin 2 or 20 μM added Day 1
Experimental: FIG. 3. Fatostatin inhibits SKBR3 cell growth in 3D Culture. SKBR3 cells were grown in 3D cultures for 8 days treated with (A) DMSO, (B) Fatostatin 2 μM or (C) Fatostatin 20 μM. Drugs were added on Day 1. Representative Differential Interference Contrast (DIC) images are shown. Scale bar, 200 μm.
as §1
SKBR3 cells were grown in 3D cultures for 8 days treated with DMSO, Fatostatin (2 μM) or (20 μM). Drugs were added on Day 1.

MDA-468 cells = assay: Three-dimensional culture of MDA-468.shp53 cells; assay type: cell-based; conditions: 3D culture 10 days, fatostatin 2 or 20 μM added Day 1
Experimental: FIG. 4. Fatostatin inhibits MDA-468 cell growth in 3D Culture. MDA-468.shp53 cells were grown in 3D cultures for 10 days treated with (A) DMSO, (B) Fatostatin 2 μM or (C) Fatostatin 20 μM. Drugs were added on Day 1. Representative Differential Interference Contrast (DIC) images are shown. Scale bar, 200 μm.
as §1
MDA-468.shp53 cells were grown in 3D cultures for 10 days treated with DMSO, Fatostatin (2 μM) or (20 μM). Drugs were added on Day 1.

[2] = mice, after administration of 23 mg/kg; cited from earlier work

| SMILES | cell growth in 3D culture (MDA-231 cells) | normalizing the abnormal 3D morphology (MDA-231 cells) | level of mutant p53 binding to the HMG-CoA reductase gene promoter [1] | cell growth in 3D culture (SKBR3 cells) | normalizing the abnormal 3D morphology (SKBR3 cells) | cell growth in 3D culture (MDA-468 cells) | normalizing the abnormal 3D morphology (MDA-468 cells) | oral availability [2] |
| --- | --- | --- | --- | --- | --- | --- | --- | --- |
| CCCc1cc(-c2nc(-c3ccc(C)cc3)cs2)ccn1 [fatostatin, 2-Propyl-4-(4-(p-tolyl)thiazol-2-yl) pyridine] | inhibited | dramatic effect on normalizing the abnormal 3D morphology | significantly reduced | inhibited | dramatic effect on normalizing the abnormal 3D morphology | inhibited | dramatic effect on normalizing the abnormal 3D morphology |  |
| CCCc1cc(-c2nc(-c3ccc(NS(C)(=O)=O)cc3)cs2)ccn1 [N-(4-(2-(2-Propylpyridin-4-yl)thiazol-4-yl)phenyl)methanesulfonamide] |  |  |  |  |  |  |  | demonstrated |
